This is an account of results in US4160829A, “Antibacterial 1,2,4-oxadiazolylacetamido cephalosporins” (Gist-Brocades N.V., priority 1972, dated 1979).

One series relates to Prot.morg. 2241. Nature of the series: agar serial dilution test. It counts as cell-based. To be noted: 24 h, agar serial dilution, 24 hours, 37° C.; read-out: minimal inhibitory concentration (MIC).
The test system of the next series is Past.multo. A 723. Nature of the series: agar serial dilution test. To be noted: Pasteurella multocida; agar serial dilution, 24 hours, 37° C.; read-out: minimal inhibitory concentration (MIC). It counts as cell-based, Pasteurella multocida.
Series [1] deals with Staph.aureus A 2000. Nature of the series: agar serial dilution test. Type of series: cell-based, Staphylococcus aureus. To be noted: Staphylococcus aureus, A2000, 24 h, agar serial dilution, 24 hours, 37° C.; read-out: minimal inhibitory concentration (MIC).
Another series relates to Pseud.aerug. 2396. Nature of the series: agar serial dilution test. Type of series: cell-based. To be noted: agar serial dilution, 24 hours, 37° C.; read-out: minimal inhibitory concentration (MIC).
Another series concerns Salm.dubl. P 43. In words: agar serial dilution test. It counts as cell-based, Salmonella dublin. To be noted: Salmonella enterica; agar serial dilution, 24 hours, 37° C.; read-out: minimal inhibitory concentration (MIC).
The test system of the next series is Prot.mirab. A 1200. In words: agar serial dilution test. It counts as cell-based, Proteus mirabilis. To be noted: Proteus mirabilis, 24 h, agar serial dilution, 24 hours, 37° C.; read-out: minimal inhibitory concentration (MIC).
Another series relates to Salm.typh. R 172. Nature of the series: agar serial dilution test. It counts as cell-based. To be noted: 24 h, read-out: minimal inhibitory concentration (MIC).
Another series concerns Staph.aureus A 321. In words: agar serial dilution test. Type of series: cell-based, Staphylococcus aureus. To be noted: Staphylococcus aureus, A321, 24 h, agar serial dilution, 24 hours, 37° C.; read-out: minimal inhibitory concentration (MIC).
A further series deals with Bac.Subt.ATCC 6633. Nature of the series: agar serial dilution test. Type of series: cell-based, Bacillus subtilis. To be noted: Bacillus subtilis, ATCC6633, 24 h, agar serial dilution, 24 hours, 37° C.; read-out: minimal inhibitory concentration (MIC).
For another series, the system named is Kleb.pneum. A 809. In words: agar serial dilution test. Type of series: cell-based, Klebsiella pneumoniae. To be noted: Klebsiella pneumoniae; agar serial dilution, 24 hours, 37° C.; read-out: minimal inhibitory concentration (MIC).
A further series has as its system Strep.haem A 1088. In words: agar serial dilution test. Type of series: cell-based, Streptococcus haemolyticus. To be noted: Streptococcus, A1088, 24 hours, 37° C., read-out: minimal inhibitory concentration (MIC).
In another series the test system is Actinob.equ. T 3. In words: agar serial dilution test. It counts as cell-based. To be noted: 24 hours, 37° C., read-out: minimal inhibitory concentration (MIC).
For series [2], the system named is Staph.aureus A 2000. In words: micro serial dilution test. Type of series: cell-based, Staphylococcus aureus. To be noted: Staphylococcus aureus, A2000, 18 h, micro serial dilution (in brackets), about 18 hours, 30° C. or 37° C.; read-out: minimal inhibitory concentration (MIC).
The subject of another series is Strep. faec. L 80. Nature of the series: agar serial dilution test. It counts as cell-based, Streptococcus faecalis. To be noted: Enterococcus faecalis; agar serial dilution, 24 hours, 37° C.; read-out: minimal inhibitory concentration (MIC).
In series [3] the test system is Prot.rettg. A 821. Nature of the series: agar serial dilution test. Type of series: cell-based, Proteus rettgeri. To be noted: Providencia rettgeri, 24 h, agar serial dilution, 24 hours, 37° C.; read-out: minimal inhibitory concentration (MIC).
The subject of a further series is Prot.mirab. H 3. Nature of the series: agar serial dilution test. Type of series: cell-based, Proteus mirabilis. To be noted: Proteus mirabilis; agar serial dilution, 24 hours, 37° C.; read-out: minimal inhibitory concentration (MIC).
Series [4] has as its system Staph.aureus A 355. Nature of the series: agar serial dilution test. To be noted: Staphylococcus aureus, A355, 24 h, read-out: minimal inhibitory concentration (MIC), agar serial dilution, 24 hours, 37° C.; penicillinase-producing strain.
Series [5] concerns Staph.aureus A 2001. In words: micro serial dilution test. Type of series: cell-based, Staphylococcus aureus. To be noted: Staphylococcus aureus, A2001, 18 h, micro serial dilution (in brackets), about 18 hours, 30° C. or 37° C.; read-out: minimal inhibitory concentration (MIC).
The subject of another series is Prot.mirab. L 93. In words: agar serial dilution test. Type of series: cell-based, Proteus mirabilis. To be noted: Proteus mirabilis; agar serial dilution, 24 hours, 37° C.; read-out: minimal inhibitory concentration (MIC).
For a further series, the system named is Esch.coli U 20. Nature of the series: agar serial dilution test. To be noted: Escherichia coli, U20; agar serial dilution, 24 hours, 37° C.; read-out: minimal inhibitory concentration (MIC). It counts as cell-based, Escherichia coli.
The next series relates to Dipl.pneum. L 54. Nature of the series: agar serial dilution test. Type of series: cell-based, Diplococcus pneumoniae. To be noted: Streptococcus pneumoniae; agar serial dilution, 24 hours, 37° C.; read-out: minimal inhibitory concentration (MIC).
For series [6], the system named is Staph.aureus A 355. In words: micro serial dilution test. It counts as cell-based, Staphylococcus aureus. To be noted: Staphylococcus aureus, A355; micro serial dilution (in brackets), about 18 hours, 30° C. or 37° C.; penicillinase-producing strain; read-out: minimal inhibitory concentration (MIC).
Another series has as its system Pseud.aerug. H 10. In words: agar serial dilution test. Type of series: cell-based. To be noted: agar serial dilution, 24 hours, 37° C.; read-out: minimal inhibitory concentration (MIC).
Series [7] concerns Pseud.aerug. Wyeth A 1058. In words: agar serial dilution test. Type of series: cell-based. To be noted: agar serial dilution, 24 hours, 37° C.; read-out: minimal inhibitory concentration (MIC).
Series [8] has as its system Staph.aureus A 2001. In words: agar serial dilution test. Type of series: cell-based, Staphylococcus aureus. To be noted: Staphylococcus aureus, A2001, 24 h, agar serial dilution, 24 hours, 37° C.; read-out: minimal inhibitory concentration (MIC).
Another series concerns Haem.Suis A 2096. In words: micro serial dilution test. Type of series: cell-based. To be noted: micro serial dilution (in brackets), about 18 hours, 30° C. or 37° C.; read-out: minimal inhibitory concentration (MIC).
Another series concerns Bruc. Suis A 2126. In words: agar serial dilution test. Type of series: cell-based. To be noted: Brucella suis, 24 h, read-out: minimal inhibitory concentration (MIC).
The subject of series [9] is Prot.rettg. A 821. In words: micro serial dilution test. To be noted: Providencia rettgeri; micro serial dilution (in brackets), about 18 hours, 30° C. or 37° C.; read-out: minimal inhibitory concentration (MIC). It counts as cell-based, Proteus rettgeri.
The subject of a further series is Salm.typh. R 127. Nature of the series: agar serial dilution test. To be noted: 24 h, 37° C., read-out: minimal inhibitory concentration (MIC). It counts as cell-based.
A short description of a further series: pKa determined in water. It counts as physicochemical.
A further series relates to Bruc.melit. A 488. In words: microbe, parasite or virus in culture. It counts as cell-based. To be noted: Brucella melitensis, 24 h, read-out: minimal inhibitory concentration (MIC).
The subject of the next series is Strep.haem. A 266. Nature of the series: agar serial dilution test. Type of series: cell-based, Streptococcus haemolyticus. To be noted: Streptococcus; agar serial dilution, 24 hours, 37° C.; read-out: minimal inhibitory concentration (MIC).
Another series relates to Haem.infl. A 1030. In words: agar serial dilution test. To be noted: 24 hours, 37° C., read-out: minimal inhibitory concentration (MIC). It counts as cell-based.
The next series concerns Shig.equir. T 3. Nature of the series: agar serial dilution test. Type of series: cell-based. To be noted: 24 h, 37° C., read-out: minimal inhibitory concentration (MIC).

Values after ≈ are worked out from the molar mass of the structure shown.

As to `CCc1nc(CC(=O)N[C@@H]2C(=O)N3C(C(=O)O)=C(CSc4nnc(C)s4)CS[C@H]23)no1` [41 A, Sodium 7-[5-ethyl-1,2,4-oxadiazol-3-yl-acetamido]-3-[5-methyl-1,3,4-thiadiazol-2-yl-mercaptomethyl]-3-cephem-4-carboxylate], the MIC was 100 µg/mL in the series on Prot.morg. 2241; 1.5 µg/mL with Past.multo. A 723; 0.5 µg/mL in the series with Staph.aureus A 2000 [1]; 100 µg/mL in the series with Pseud.aerug. 2396; 12.5 µg/mL in the series on Salm.dubl. P 43; 100 µg/mL with Prot.mirab. A 1200. Moreover, the MIC in the series with Salm.typh. R 172 is 50 µg/mL; in the series with Staph.aureus A 321 it was 0.25 µg/mL; in the series with Bac.Subt.ATCC 6633 it was 0.25 µg/mL; in the series on Kleb.pneum. A 809 it was 6 µg/mL; in the series on Strep.haem A 1088 it was 0.06 µg/mL; with Actinob.equ. T 3, 12.5 µg/mL. Moreover, the MIC stood at 0.23 µg/mL in the series with Staph.aureus A 2000 [2]; 50 µg/mL with Strep. faec. L 80; 1.5 µg/mL in the series with Prot.rettg. A 821 [3]; 100 µg/mL in the series with Prot.mirab. H 3; 0.75 µg/mL in the series on Staph.aureus A 355 [4]; 0.15 µg/mL in the series with Staph.aureus A 2001 [5]. In addition, the MIC with Prot.mirab. L 93 is 6 µg/mL; in the series on Esch.coli U 20 it was 3 µg/mL; in the series with Dipl.pneum. L 54, 0.75 µg/mL; in the series with Staph.aureus A 355 [6], 0.3 µg/mL; with Pseud.aerug. H 10, 100 µg/mL; in series [7] it was 100 µg/mL. Moreover, the values for the MIC in the series with Staph.aureus A 2001 [8], in the series with Haem.Suis A 2096 and with Bruc. Suis A 2126 were 0.5 µg/mL, 15 µg/mL and 6 µg/mL, respectively.

On to `Cc1nnc(SCC2=C(C(=O)O)N3C(=O)[C@@H](NC(=O)Cn4cnnn4)[C@H]3SC2)s1` [Cephazolin, reference compound], for which the MIC in the series on Prot.morg. 2241 was 25 µg/mL (≈ 55 µM); with Prot.rettg. A 821 [9], 1.2 µg/mL (≈ 2.64 µM); in the series with Past.multo. A 723, 1.5 µg/mL (≈ 3.3 µM); with Staph.aureus A 2000 [1] it was 0.75 µg/mL (≈ 1.65 µM); in the series on Pseud.aerug. 2396, above 100 µg/mL; in the series on Salm.dubl. P 43, 1.5 µg/mL (≈ 3.3 µM). Besides, the MIC in the series on Prot.mirab. A 1200 was determined as 6 µg/mL (≈ 13.2 µM); with Staph.aureus A 321, 0.25 µg/mL (≈ 0.55 µM); in the series with Bac.Subt.ATCC 6633, 0.25 µg/mL (≈ 0.55 µM); in the series on Kleb.pneum. A 809 it was 1.5 µg/mL (≈ 3.3 µM); in the series on Staph.aureus A 2000 [2] it was 0.9 µg/mL (≈ 1.98 µM); with Salm.typh. R 127 it was 3 µg/mL (≈ 6.6 µM). The MIC was found to be 12.5 µg/mL (≈ 27.5 µM) in the series with Strep. faec. L 80; 6 µg/mL (≈ 13.2 µM) with Prot.mirab. H 3; 1.5 µg/mL (≈ 3.3 µM) in the series on Staph.aureus A 355 [4]; 0.45 µg/mL (≈ 0.99 µM) with Staph.aureus A 2001 [5]; 1.5 µg/mL (≈ 3.3 µM) in the series on Prot.mirab. L 93; 1.5 µg/mL (≈ 3.3 µM) in the series with Esch.coli U 20. Moreover, the MIC in the series on Dipl.pneum. L 54 was 0.25 µg/mL (≈ 0.55 µM); in the series with Staph.aureus A 355 [6] it was 0.6 µg/mL (≈ 1.32 µM); with Pseud.aerug. H 10, above 100 µg/mL; in series [7] it was above 100 µg/mL; in the series on Staph.aureus A 2001 [8], 0.5 µg/mL (≈ 1.1 µM).

`Cc1noc(CC(=O)O)n1` [Example 1, 3-methyl-1,2,4-oxadiazol-5-yl-acetic acid] returned a pKa in the series “pKa determined in water” of 3.64.

In the series “pKa determined in water”, `Cc1nc(CC(=O)O)no1` [Example 4, 5-methyl-1,2,4-oxadiazol-3-yl-acetic acid] showed a pKa of around 3.4.

`CC1(C)S[C@@H]2[C@H](NC(=O)Cc3nc(-c4c(Cl)cccc4Cl)no3)C(=O)N2[C@H]1C(=O)O` [Example 11A, 6-{[3-(2,6-dichlorophenyl)-1,2,4-oxadiazol-5-yl]-acetamido}penicillanic acid]: the MIC was above 100 µg/mL with Prot.morg. 2241; 3 µg/mL (≈ 6.37 µM) in the series with Past.multo. A 723; 3 µg/mL (≈ 6.37 µM) in the series with Staph.aureus A 2000 [1]; above 100 µg/mL with Pseud.aerug. 2396; above 100 µg/mL in the series on Salm.dubl. P 43; 0.06 µg/mL (≈ 0.127 µM) in the series with Staph.aureus A 321. In addition, the MIC in the series with Bac.Subt.ATCC 6633 was 0.06 µg/mL (≈ 0.127 µM); in the series with Kleb.pneum. A 809 it was above 100 µg/mL; in the series with Bruc.melit. A 488, 3 µg/mL (≈ 6.37 µM); in the series on Strep.haem. A 266, 1 µg/mL (≈ 2.12 µM); with Strep. faec. L 80 it was 25 µg/mL (≈ 53 µM); in the series with Prot.rettg. A 821 [3], above 100 µg/mL. Besides, the MIC was above 100 µg/mL in the series with Prot.mirab. H 3; 3 µg/mL (≈ 6.37 µM) in the series on Staph.aureus A 355 [4]; 100 µg/mL (≈ 212 µM) with Haem.infl. A 1030; 25 µg/mL (≈ 53 µM) in the series with Shig.equir. T 3; above 100 µg/mL in the series on Prot.mirab. L 93; above 100 µg/mL with Esch.coli U 20. The values for the MIC (in the series on Dipl.pneum. L 54; in the series with Pseud.aerug. H 10; in series [7]) were 3 µg/mL (≈ 6.37 µM), above 100 µg/mL and above 100 µg/mL, respectively.

The term pKa denotes the pH at which an ionisable group is half protonated. Read a low pKa as a stronger acid or weaker base.
